Seven compounds from patent publication US10172816B2, “Method of treating chronic obstructive pulmonary disease (CPD) with verproside” (YUNGJIN PHARMACEUTICAL CO., LTD, priority 2013, dated 2019) can be followed below.

Experiment [1] concerns the target ADBR2 (beta-2 adrenergic receptor) GPCR (Homo sapiens, UniProt P07550). The experiment in a line: ADBR2 GPCR-targeting cell-based assay (spot formation). The settings on record: 20 micromole; U2OS cells stably expressing ADBR2 GPCR.
Experiment [2] deals with KC/CXCL-1 (Chemokines Gro-α). The experiment can be described thus: COPD mouse model (LPS+CS): KC/CXCL-1 in BALF by ELISA. In kind it is in vivo, BALB/c mice. As to conditions: 15 mg/kg, p.o. Here is the method: (§1) 8 weeks aged BALB/c male mice was anaesthetized with 7% chloral hydrate and 100 μl of LPS+CS mixture {LPS (100 μg/ml)+standard cigarette extract (Cigarette smoking (CS), 4 mg/ml)=1:1} was inhaled to mice (i.t.) for three weeks once a week to prepare COPD animal model. Briefly, 100 μl of LPS+CS mixture was evenly inhaled to nose and mouth of fastened mice (i.t). […] After the end of experiment, the blood, BALF, and pneumonocyte of each mice were isolated and collected to test. The level of IL-1β, IL-6, TNF-a, IL-17, MCP-1, and GRO-a (BioSource, USA) in BALF isolated from mice was determined by enzyme-linked immuno-sorbent assay. Respective antibodies against L-1β, IL-6, TNF-a, IL-17, MCP-1, and GRO-a were diluted with a coating buffer solution (291195, R&D System, USA), coated on a microwell and left alone for overnight at 4° C. Each well was washed three times with washing buffer solution and 100 μl of 10-fold diluted serum was added thereto. […] The solution was left alone for 30 mins in shadow and added with 50 μl of stop solution (DY994, R&D system, USA) to determine the absorbance using by ELISA leader at 450 nm (340PC384, Molecular Devices, USA).

Experiment [3] deals with inflammatory immunocytes and neutrophils in BALF. The experiment in a line: COPD mouse model (LPS+CS, i.t.): immunocytes, neutrophils and T lymphocytes in BALF. In kind it is in vivo, BALB/c mice. The settings on record: 15 mg/kg, p.o. Here is the method: Specific pathogen-free male BALB/c mice (about 18-20 g), aged 8 weeks, which were routinely screened serologically for relevant respiratory pathogens, were purchased from ORIENT Co. (www.orient.co.kr, Seoul, Korea) and bred allowing to access freely to feed and water in breeding room controlling the temperature of 22±2° C., and humidity of 55±15% at the light-dark cycle for 12 hours and acclimated with the experimental environment for 1 week. […] 8 weeks aged BALB/c male mice was anaesthetized with 7% chloral hydrate and 100 μl of LPS+CS mixture {LPS (100 μg/ml)+standard cigarette extract (Cigarette smoking (CS), 4 mg/ml)=1:1} was inhaled to mice (i.t.) for three weeks once a week to prepare COPD animal model. Briefly, 100 μl of LPS+CS mixture was evenly inhaled to nose and mouth of fastened mice (i.t). […] After the end of experiment, the blood, BALF, and pneumonocyte of each mice were isolated and collected to test. After blood collection, 1 ml of FBS-free/DMEM medium contained in injector was injected to the trachea of autopsied mice, and the mice was fixed with string to circulate the blood three times and isolate the cell from BALF. […] The isolated PBMCs, BAL (Bronchoalveolar lavage), and pneumocyte were adjusted to 5×10^5 cells and performed to immunofluorescence staining at 4° C. PE-anti-CD3e (553064, BD Pharmingen, USA), FITC-anti-CD8 (553031, BD Pharmingen, USA), PE-anti-CD4 (553047, BD Pharmingen, USA), PE-anti-Gr-1 (553128, BD Pharmingen, USA), and FITC-anti-neutrophil (ab55453, Abcam, UK) were added thereto, respectively, and reacted for 30 mins in ice. After the reaction, the cells were washed with phosphate buffered physiological saline solution more than three times and the cell frequency (%) of CD3^+CD4^+& CD3^+CD8^+, and Gr-1^+Neutrophil^+ was determined using by Cell Quest program (643274, BD Biosciences, USA) of the flow cytometer (FACSCalibur, Becton, Dickinson, USA) and the absolute total number in each tissue was calculated by applying total cells.

The test system of the next experiment is TNF-α. The experiment can be described thus: COPD mouse model (LPS+CS): TNF-α in BALF by ELISA. In kind it is in vivo, BALB/c mice. As to conditions: 15 mg/kg, p.o. As to the method: as §1
On the technique in general: In an ELISA, binding on a coated surface is turned into a signal by an enzyme label.

For another experiment, the system named is MIP-2/CXCL-2. The experiment in a line: COPD mouse model (LPS+CS): MIP-2/CXCL-2 in BALF by ELISA. In kind it is in vivo, BALB/c mice. As to conditions: 15 mg/kg, p.o.
The test system of experiment [4] is Mucin 5A/C. The experiment in a line: Acrolein-induced Mucin 5A/C expression in A549 cells (RT-PCR). In kind it is cell-based, human. As to conditions: pre-treated 1 hour, then 30 nM acrolein, dose dependent. As to the method: The diluted A549 cell line (ATCC, CCL-185) with DMEM medium supplemented with 5% phenol red and FBS (Fetal Bovine Serum) was seeded in 6 well plates (4×10^5 cells/well) to adhere thereto for a night, and 20 and 40 microgram/ml of ATC2 extract were treated with A549 cell line for 1 hours. 30 nM acrolein was treated therewith to induce Mucin 5A/C expression. The medium was removed the cell, washed with PBS solution and homogenized with Trizol (Invitrogen, CA, USA) for the isolation of ribonucleic acids from the cells for 5 mins. the cells were collected, transferred to centrifugal separator, completely mixed with chloroform for 15 seconds, left alone for 3 mins and centrifuged for 15 mins at the speed of 14,000 rpm. The supernatant containing ribonucleic acid was transferred to new tube and mixed with isopropylalcohol for 10 mins. The solution was centrifuged to discard the supernatant and 75% ethanol was added to the precipitate. The precipitate was centrifuged for 5 mins at the speed of 10,000 rpm and the supernatant was discarded. The precipitated ribonucleic acid was dried at room temperature for 20 mins. […] After the quantification of ribonucleic acid, the complementary DNA was synthesized using by 1 microgram of RNA and RT-kit (Omniscript RT kit, Qiagen, USA) and the synthetic cDNA was used as a template. […]

Experiment [5] relates to Mucin 5A/C. The experiment in a line: Digitization of Mucin 5A/C expression in A549 cells by high content screening. In kind it is cell-based, human. As to conditions: 1, 5 and 10 ng/ml, versus control medium (GM). Here is the method: Accordingly, the present inventors developed novel high throughput screening test by introducing high content screening system which can quantitatively determine the expression of target protein in animal cell level and in order to screening the inhibiting agent of Mucin 5AC expression, following test was performed by modifying the target activator method published on Cellomics BioApplication.
A549 cell line (ATCC, CCL-185), a epithelial cell line isolated from human lung cancer tissue was seeded on 96 well plates (5,000 cells/well) and 24 hrs after the seeding, 20 ng/ml of bFGF, 100 ng/ml of EGF, 20 micromole IGF, 5 ng/ml of TGF-beta1, 30 nanomole acrolein, 5 nanomole PMA, 1 microgram/ml, LPS and 20 ng/ml of IL-1 beta were treated therewith. The expression of Mucin 5A/C was digitized by target activator program in Cellomics apparatus.
Various concentrations of TGF-beta 1 (PeproTech, #100-21), i.e., 1, 5 and 10 ng/ml TGF-beta 1 were treated with A549 cell line (ATCC, CCL-185), and the expression of Mucin 5A/C was digitized by target activator program in Cellomics apparatus.
Various concentrations of ATC2 extract were treated with A549 cell line for 2 hours and then […] TNF-alpha (Sigma, H8916) was treated therewith for 24 hours. The expression of Mucin 5A/C was digitized by target activator program in Cellomics apparatus.

ADBR2 (beta-2 adrenergic receptor) GPCR, sequence (P07550 whole entry): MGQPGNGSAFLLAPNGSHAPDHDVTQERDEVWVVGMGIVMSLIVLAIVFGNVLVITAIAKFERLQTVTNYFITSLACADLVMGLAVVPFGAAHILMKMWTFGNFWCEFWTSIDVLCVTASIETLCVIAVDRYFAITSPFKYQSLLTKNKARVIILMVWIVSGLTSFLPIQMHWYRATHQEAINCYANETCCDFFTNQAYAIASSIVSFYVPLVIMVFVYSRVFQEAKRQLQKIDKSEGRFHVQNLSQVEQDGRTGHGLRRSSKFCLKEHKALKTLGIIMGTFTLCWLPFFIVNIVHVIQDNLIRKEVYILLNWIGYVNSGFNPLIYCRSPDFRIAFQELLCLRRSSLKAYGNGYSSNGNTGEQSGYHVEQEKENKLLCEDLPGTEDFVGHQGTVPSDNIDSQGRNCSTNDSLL

`COc1ccc(C(=O)OC2C3C=COC(OC4OC(CO)C(O)C(O)C4O)C3C3(CO)OC23)cc1O` (centres unmarked) [isovanilloyl catalpol, 6-O-(3-hydroxy-4-methoxybenzoyl)catalpol]: in experiment [1], the spot formation entry is on record as “did not show spot formation”.

For the compound `O=C(Nc1c(Cl)cncc1Cl)c1ccc(OC(F)F)c(OCC2CC2)c1` [Roflumilast, reference compound], the “reduction of chemokine KC/CXCL-1 in BALF compared with control group” value in experiment [2] is more than 82.7%. Moreover, in experiment [3], the “number of total immunocyte in BALF compared with control group” value is reported as “sharply reduced”; the “reduction of number of neutrophils (Diff-Quik stained, cytospin) in BALF compared with control group” value is on record as more than 99.0%; the “reduction of total absolute cell number of CD8+ T cell in BALF compared with control group” value is “more than 67.2%”; the “reduction of total absolute cell number of Neutrophils+Gr-1+ cell in BALF compared with control group” value is reported as more than 97.5%. The “reduction of TNF-α in BALF compared with control group” value in the experiment with TNF-α was more than 65.0%. For the same compound, the “reduction of chemokines MIP-2/CXCL-2 in BALF compared with control group” value with MIP-2/CXCL-2 is listed as more than 81.9%.

As to `COc1ccc(C(=O)O[C@H]2[C@@H]3C=CO[C@@H](O[C@@H]4O[C@H](CO)[C@@H](O)[C@H](O)[C@H]4O)[C@@H]3[C@@]3(CO)O[C@@H]23)cc1OC` [6-O-veratroyl catalpol, 6-O-(3,4-dimethoxybenzoly) catalpol], the “expression of Mucin 5A/C (mRNA, RT-PCR)” value in the experiment with Mucin 5A/C [4] is given as “inhibited”. Also, the spot formation entry in experiment [1] is on record as “did not show spot formation”.

As for “TGF-beta1: TGF-beta 1 (PeproTech, #100-21)”, the “expression of Mucin 5A/C” value with Mucin 5A/C [5] is on record as “more inhibited the expression of MUCSA/C than control medium”.

As for `COc1ccc(C(=O)O)cc1OC` [veratric acid], in experiment [1], the spot formation entry was “did not show spot formation”.

On to `COc1cc(C(=O)O[C@H]2[C@@H]3C=CO[C@@H](O[C@@H]4O[C@H](CO)[C@@H](O)[C@H](O)[C@H]4O)[C@@H]3[C@@]3(CO)O[C@@H]23)ccc1O` [picroside II, 6-O-(4-hydroxy-3-methoxybenzoly) catalpol], for which the spot formation entry in experiment [1] was “did not show spot formation”.

Take `O=C(O[C@H]1[C@@H]2C=CO[C@@H](O[C@@H]3O[C@H](CO)[C@@H](O)[C@H](O)[C@H]3O)[C@@H]2[C@@]2(CO)O[C@@H]12)c1ccc(O)cc1` [catalposide, 6-O-(4-hydroxybenzolyl) catalpol]: the spot formation entry in experiment [1] was “did not show spot formation”.
